Experimental data published in article PMC4749975, “Selective binding modes and allosteric inhibitory effects of lupane triterpenes on protein tyrosine phosphatase 1B” (Scientific Reports, 2016).
Entries after “also recorded” stand apart in the source; their conditions may differ. Where two headings read alike, the source gives them in different places. Each block holds one molecule with its values, some of them ahead of it.

Assays:
[1] = biological target: T1, recombinant human TCPTP protein (Homo sapiens, UniProt P17706); assay: Inhibiting TCPTP by pNPP phosphatase assay; format: biochemical; conditions: for Fold changes (TCPTP IC50 / PTP1B IC50): PTP1B IC50 from literature, TCPTP IC50 measured
T1 construct: purchased Abcam Inc (Cambridge, MA) ab42575
T1 sequence (P17706 1-415): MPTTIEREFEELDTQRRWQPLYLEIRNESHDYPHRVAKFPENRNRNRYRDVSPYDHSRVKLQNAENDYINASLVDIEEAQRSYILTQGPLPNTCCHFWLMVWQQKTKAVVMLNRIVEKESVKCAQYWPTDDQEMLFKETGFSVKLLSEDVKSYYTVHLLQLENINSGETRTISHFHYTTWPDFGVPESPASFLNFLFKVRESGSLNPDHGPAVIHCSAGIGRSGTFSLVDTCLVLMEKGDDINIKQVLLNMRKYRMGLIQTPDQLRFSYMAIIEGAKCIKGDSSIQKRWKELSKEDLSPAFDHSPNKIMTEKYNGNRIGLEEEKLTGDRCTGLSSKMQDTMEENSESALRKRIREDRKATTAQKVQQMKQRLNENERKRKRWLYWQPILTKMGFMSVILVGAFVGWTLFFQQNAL

[2] = biological target: T2, PTP1B (Homo sapiens, UniProt P18031); assay: PTP1B inhibition kinetics assay (Lineweaver-Burk, pNPP); format: biochemical; conditions: Lineweaver-Burk plot; for mode of inhibition of PTP1B: 6 pNPP and 4 compound concentrations
T2 sequence (P18031 1-435): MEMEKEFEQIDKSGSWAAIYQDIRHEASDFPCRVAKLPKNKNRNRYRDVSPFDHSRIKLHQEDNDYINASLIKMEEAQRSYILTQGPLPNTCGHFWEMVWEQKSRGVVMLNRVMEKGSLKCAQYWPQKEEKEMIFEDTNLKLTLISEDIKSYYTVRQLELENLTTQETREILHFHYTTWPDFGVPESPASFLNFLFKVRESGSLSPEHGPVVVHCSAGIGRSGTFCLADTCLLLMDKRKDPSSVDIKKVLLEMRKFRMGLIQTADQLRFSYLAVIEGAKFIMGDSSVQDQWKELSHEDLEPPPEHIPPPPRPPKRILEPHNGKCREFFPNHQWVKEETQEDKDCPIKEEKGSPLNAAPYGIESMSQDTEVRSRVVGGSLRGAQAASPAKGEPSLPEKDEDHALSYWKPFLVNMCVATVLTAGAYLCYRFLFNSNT
Procedure: The Lupeol group was used as a control group. The absorbance at 405 nm was detected by a spectraMAX 384 microplate spectrophotometer twice every minute for a total of 15 min. Michaelis-Menten constant (Km) and maximum velocity (Vmax) of PTP1B were determined via Lineweaver-Burk plots using the GraphPad Prism 5 program (GraphPad Software Inc, La Jolla, CA).

[3] = biological target: T2, PTP1B; assay: Estimation of Ki and binding free energy from experimental IC50 (IC50-to-Ki converter)
[4] = biological target: T2, PTP1B; conditions: cited from earlier work; for IC50: read-out: IC50 PTP1B
[5] = biological target: T3, PTP1B (Mus musculus, UniProt P35821); assay: Immunoprecipitation assay of PTP1B activity in TNFα-treated mHypoE-46 neurons; format: cell-based
T3 construct: endogenous in cells; host or cells: mHypoE-46 mouse hypothalamic neurons
T3 sequence (P35821 1-432): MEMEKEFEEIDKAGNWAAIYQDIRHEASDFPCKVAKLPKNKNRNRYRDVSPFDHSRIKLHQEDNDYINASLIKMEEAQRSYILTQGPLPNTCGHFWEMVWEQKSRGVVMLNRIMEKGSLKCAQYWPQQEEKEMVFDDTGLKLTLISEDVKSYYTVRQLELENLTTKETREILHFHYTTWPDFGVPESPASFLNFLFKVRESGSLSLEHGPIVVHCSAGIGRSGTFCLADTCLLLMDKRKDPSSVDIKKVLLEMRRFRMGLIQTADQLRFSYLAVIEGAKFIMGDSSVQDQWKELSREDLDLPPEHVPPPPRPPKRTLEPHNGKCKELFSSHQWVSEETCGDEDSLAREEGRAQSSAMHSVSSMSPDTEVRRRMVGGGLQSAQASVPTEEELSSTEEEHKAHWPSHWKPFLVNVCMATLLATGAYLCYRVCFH
Procedure: (§1) Mouse hypothalamic cell line (mHypoE-46) neurons were grown in monolayer in Dulbecco’s modified Eagle medium (DMEM) (Sigma D5796, Castle Hill, NSW) with 10% fetal bovine serum (FBS) (SAFC Biosciences Inc, Lenexa, KS) and 1% penicillin/streptomycin. They were maintained at 37 °C with 5% CO2. Prior to treatment, the cell culture medium was replaced with DMEM containing 1% penicillin/streptomycin for 4 h. Murine TNFα was obtained from Sigma-Aldrich (Castle Hill, NSW). Lupeol and betulinic acid were dissolved in Dimethyl sulfoxide (DMSO), then diluted in sterile water, and mixed with serum free cell culture medium. The DMSO concentration was controlled below 0.15%.
Based on the instructions of the Pierce Classic IP Kit (#26146, Thermo Fisher Scientific Inc, IL) with minor modifications, PTP1B was immunoprecipitated using the 25 μg PTP1B antibody (sc-1718, Santa Cruz Biotechnology Inc, Dallas, TX) for 12 h at 4 °C. Immune complexes were isolated by adding the protein G-agarose, washed three times in the phosphatase assay buffer from the EnzoLyte Colorimetric pNPP Protein Phosphatase Assay kit (Anaspec, San Jose, CA), and resuspended in the same buffer. Samples were analysed for the phosphatase activity using the same pNPP assay kit mentioned above.

[6] = system: PTP1B; assay: Western blot of PTP1B protein expression in mHypoE-46 neurons; format: cell-based, Mouse; conditions: for PTP1B protein expression: 10 h after TNFα 8 h
Procedure: as §1
The method was described in our previous study with modifications, mHypoE-46 neurons were washed with ice-cold PBS and lysed in NP-40 lysis buffer (Invitrogen Australia Pty Ltd, Mulgrave, VIC) containing a protease inhibitor cocktail, beta-glycerophosphate and phenylmethanesulfonyl fluoride (PMSF) (Sigma, Castle Hill, NSW). Cell lysates were centrifuged at 14000 rpm for 10 min at 4 °C. The supernatants were collected and protein concentrations were determined using the DC assay (Bio-Rad Laboratories, Gladesville, NSW) according to the manufacturer’s instructions. Equal amounts of protein (10 μg) were separated on 4–12% Bis-Tris gels (Bio-Rad Laboratories, Gladesville, NSW,) using SDS-PAGE. Following electrophoresis (120 V for 2 h), the proteins were transferred to polyvinylidene difluoride membranes (100 V for 1 h). Membranes were blocked in 5% bovine serum albumin (BSA), followed by incubation with the primary antibodies PTP1B (sc-1718, 1:500, Santa Cruz Biotechnology Inc, Dallas, TX) in 1% BSA overnight at 4 °C. […] The bands corresponding to the proteins of interest were scanned and densitometrically analysed using the automatic imaging analysis system Quantity One (Bio-Rad Laboratories, Gladesville, NSW). All quantitative analyses were normalised to β-actin.

[7] = pNPP assay, 25 °C, read-out: IC50 TCPTP

Molecule: C=C(C)[C@@H]1CC[C@]2(CO)CC[C@]3(C)[C@H](CC[C@@H]4[C@@]5(C)CC[C@H](O)C(C)(C)[C@@H]5CC[C@]43C)[C@@H]12 [Betulin, betulin]
- IC50 [1]: 119 µM
- Fold changes (TCPTP IC50 / PTP1B IC50) [1]: 7 fold
- Km value of PTP1B in presence of compound [2]: altered Km value
- Vmax value of PTP1B in presence of compound [2]: decreased Vmax value
- mode of inhibition of PTP1B [2]: mixed-type inhibition
- Ki [3]: 15.3 µM
- IC50 [4]: 15.3 µM

Molecule: CCc1oc2cc(S(=O)(=O)Nc3ccc(S(=O)(=O)Nc4nccs4)cc3)ccc2c1C(=O)c1cc(Br)c(O)c(Br)c1 [Compound 3, reference compound]
- IC50 [1, 7]: 62.7 µM

Molecule: C=C(C)[C@@H]1CC[C@]2(C)CC[C@]3(C)[C@H](CC[C@@H]4[C@@]5(C)CCC(=O)C(C)(C)[C@@H]5CC[C@]43C)[C@@H]12 [Lupenone, lupenone]
- Fold changes (TCPTP IC50 / PTP1B IC50) [1]: 6 fold
- IC50 [1, 7]: 91.5 µM
- mode of inhibition of PTP1B (literature) [4]: non-competitive inhibitors
- IC50 [4]: 13.7 µM

Molecule: C=C(C)[C@@H]1CC[C@]2(C)CC[C@]3(C)[C@H](CC[C@@H]4[C@@]5(C)CC[C@H](O)C(C)(C)[C@@H]5CC[C@]43C)[C@@H]12 [Lupeol, lupeol]
- IC50 [1]: 126 µM
- Fold changes (TCPTP IC50 / PTP1B IC50) [1]: 22 fold
- inhibition of PTP1B enzyme activity ([5]; lupeol 28 μM, 10 h after TNFα 8 h): significantly inhibited
- inhibition at 28 µM ([5]; lupeol 28 μM, 10 h after TNFα 8 h, read-out: inhibition of PTP1B enzyme activity): 35%
- PTP1B protein expression ([6]; lupeol 28 μM): slightly decreased; also recorded: do not significantly decrease
- Ki [3]: 5.6 µM
- mode of inhibition of PTP1B (literature) [4]: non-competitive inhibitor
- IC50 [4]: 5.6 µM

Second part, led by results:

- Fold changes (TCPTP IC50 / PTP1B IC50) [1]: 81 fold
- IC50 [1, 7]: 124 µM
- Km value of PTP1B in presence of compound [2]: constant Km value
- Vmax value of PTP1B in presence of compound [2]: decreased Vmax value
- mode of inhibition of PTP1B [2]: non-competitive inhibitor
- inhibition of PTP1B enzyme activity ([5]; betulinic acid 7.5 μM, 10 h after TNFα 8 h): significantly inhibited
- inhibition at 7.5 µM ([5]; betulinic acid 7.5 μM, 10 h after TNFα 8 h, read-out: inhibition of PTP1B enzyme activity): 35%
- Ki ([3]; IC50-to-Ki converter, [E] 0.01, [S] 20000 µM, read-out: Constant of inhibition [Ki]): 1.5 µM
Molecule: C=C(C)[C@@H]1CC[C@]2(C(=O)O)CC[C@]3(C)[C@H](CC[C@@H]4[C@@]5(C)CC[C@H](O)C(C)(C)[C@@H]5CC[C@]43C)[C@@H]12 [Betulinic acid, betulinic acid]
- PTP1B protein expression ([6]; betulinic acid 7.5 μM): slightly decreased; also recorded: do not significantly decrease

- increase of PTP1B activity ([5]; TNFα 20 ng/ml, 8 h): 1.5 fold
Molecule: TNFα
- increase of PTP1B expression ([6]; TNFα 20 ng/ml, 8 h): 1.75 fold
